Experimental data: BigSolDB 2.1

CC(=O)Nc1ccc(OC(=O)c2ccccc2OC(C)=O)cc1
solubility (mole fraction) (in DMF, 278.15 K): 0.0175 | solubility (mole fraction) (in DMF, 283.15 K): 0.0187 | solubility (mole fraction) (in DMF, 288.15 K): 0.0201 | solubility (mole fraction) (in DMF, 293.15 K): 0.0214 | solubility (mole fraction) (in DMF, 298.15 K): 0.0229 | solubility (mole fraction) (in DMF, 303.15 K): 0.0244 | solubility (mole fraction) (in DMF, 308.15 K): 0.0258 | solubility (mole fraction) (in DMF, 313.15 K): 0.0274 | solubility (mole fraction) (in DMF, 318.15 K): 0.029 | solubility (mole fraction) (in NMP, 278.15 K): 0.0222 | solubility (mole fraction) (in NMP, 283.15 K): 0.0255 | solubility (mole fraction) (in NMP, 288.15 K): 0.0289 | solubility (mole fraction) (in NMP, 293.15 K): 0.0326 | solubility (mole fraction) (in NMP, 298.15 K): 0.0368 | solubility (mole fraction) (in NMP, 303.15 K): 0.041 | solubility (mole fraction) (in NMP, 308.15 K): 0.0461 | solubility (mole fraction) (in NMP, 313.15 K): 0.0515 | solubility (mole fraction) (in NMP, 318.15 K): 0.0571 | solubility (mole fraction) (in ethanol, 278.15 K): 0.000261 | solubility (mole fraction) (in ethanol, 283.15 K): 0.00035 | solubility (mole fraction) (in ethanol, 288.15 K): 0.000454 | solubility (mole fraction) (in ethanol, 293.15 K): 0.000588 | solubility (mole fraction) (in ethanol, 298.15 K): 0.000755 | solubility (mole fraction) (in ethanol, 303.15 K): 0.000947 | solubility (mole fraction) (in ethanol, 308.15 K): 0.0012 | solubility (mole fraction) (in ethanol, 313.15 K): 0.00151 | solubility (mole fraction) (in ethanol, 318.15 K): 0.00191 | solubility (mole fraction) (in isopropanol, 278.15 K): 0.000141 | solubility (mole fraction) (in isopropanol, 283.15 K): 0.000191 | solubility (mole fraction) (in isopropanol, 288.15 K): 0.000257 | solubility (mole fraction) (in isopropanol, 293.15 K): 0.000346 | solubility (mole fraction) (in isopropanol, 298.15 K): 0.000456 | solubility (mole fraction) (in isopropanol, 303.15 K): 0.000604 | solubility (mole fraction) (in isopropanol, 308.15 K): 0.000781 | solubility (mole fraction) (in isopropanol, 313.15 K): 0.00103 | solubility (mole fraction) (in isopropanol, 318.15 K): 0.00131 | solubility (mole fraction) (in water, 278.15 K): 5.59e-07 | solubility (mole fraction) (in water, 283.15 K): 8.56e-07 | solubility (mole fraction) (in water, 288.15 K): 1.19e-06 | solubility (mole fraction) (in water, 293.15 K): 1.74e-06 | solubility (mole fraction) (in water, 298.15 K): 2.45e-06 | solubility (mole fraction) (in water, 303.15 K): 3.49e-06 | solubility (mole fraction) (in water, 308.15 K): 4.82e-06 | solubility (mole fraction) (in water, 313.15 K): 6.74e-06 | solubility (mole fraction) (in water, 318.15 K): 8.99e-06
